Results published in patent publication US20140213576A1, “NOVEL COMPOUND USEFUL FOR THE TREATMENT OF DEGENERATIVE AND INFLAMMATORY DISEASES” (GALAPAGOS NV, priority 2013, published 2014).

Legend:
[1] = tested on: CTLL2 (ATCC TIB-214); test: CTLL2 viability assay; format: cell-based; details: IL2-dependent viability, ATP-lite, individual determinations
Protocol: The protocol describes the methods to analyse the activity of compounds on the ability to sustain the IL2-dependent viability of CTLL2 (ATCC TIB-214).
Negative control is a DMSO dilution, positive control at 10 μM. Final DMSO concentration is 0.1%.

[2] = tested on: IL-6-induced STAT1 phosphorylation; test: Whole blood assay, IL-6 stimulation, phospho-STAT1 by FACS; format: cell-based; details: human whole blood, CD4+ cells, 9 different donors
Protocol: In addition, a flow cytometry analysis was performed to establish JAK1 over JAK2 compound selectivity ex vivo using human whole blood. Therefore, blood was taken from human volunteers who gave informed consent. Blood was then equilibrated for 30 min at 37° C. under gentle rocking, then aliquoted in Eppendorf tubes. Compound was added at different concentrations and incubated at 37° C. for 30 min under gentle rocking and subsequently stimulated for 20 min at 37° C. under gentle rocking with interleukin 6 (IL-6) for JAK1-dependent pathway stimulation or GM-CSF for JAK2-dependent pathway stimulation. Phospho-STAT1 and phospho-STAT5 were then evaluated using FACS analysis.
For IL-6-stimulated increase of Signal Transducers and Activators of Transcription 1 (pSTAT1) phosphorylation in white blood cell, human whole blood, drawn from human volunteers who gave informed consent, was ex vivo treated with the compound for 30 min and subsequently stimulated for 20 min with IL-6. The increase in phosphorylation of STAT1 by IL-6 in lymphocytes was measured using anti phospho-STAT1 antibody by FACS. […]
Cells are then washed once with 1×PBS and analyzed on a FACSCanto II flow cytometer (BD Biosciences).
50,000 total events were counted and Phospho-STAT1 positive cells were measured after gating on CD4+ cells, in the lymphocyte gate. […]

- IC50 [2]: 0.498 µM
SMILES: CCc1cc(C2CN(S(C)(=O)=O)C2)ncc1N(C)c1cc2c(cn1)ncn2C [Compound 1, [4-Ethyl-6-(1-methanesulfonyl-azetidin-3-yl)-pyridin-3-yl]-methyl-(1-methyl-1H-imidazo[4,5-d]pyridin-6-yl)-amine]
- IC50 ([1]; 24 h, listed as compound of the invention): 3.79 µM
- IC50 ([1]; Mus musculus, CTLL-2, 24 h): 7.39 µM
